Source: patent US5216183A, “Cyclopentanone/cyclopentenone derivative” (Teijin Limited, priority 1988, dated 1993)

Test system: human osteoblasts (KK-3, 18PDL)
Assay: Measurement of bone formation activity (KK-3, 14 days)
Assay type: cell-based
Procedure: Human osteoblasts (KK-3, 18PDL) were cultured in an α-MEM containing 10% fetal calf serum. After the growth became stationary, the compound was added in a given concentration in the presence of 2 mM α-glycerophosphate and treated for 14 days. The cell phase was washed with physiological saline, and the alkaline phosphatase activity (ALP) was measured through the absorption of OD415. Then, calcium (Ca) and phosphorus (P) were extracted with a 2N hydrochloric acid and quantitatively determined.

[1] = Table 31, 10^-7 M, control 0.18 ± 0.06
[2] = Table 31, 10^-7 M, control 1.88 ± 0.31
[3] = Table 31, 10^-7 M, control 4.73 ± 0.37
[4] = Table 31, 10^-8 M, control 0.18 ± 0.06
[5] = Table 31, 10^-8 M, control 1.88 ± 0.31
[6] = Table 27, 10^-7 M, control 0.58 ± 0.03
[7] = Table 27, 10^-7 M, control 11.83 ± 3.18
[8] = Table 30, 10^-6 M, control 0.60 ± 0.02
[9] = Table 30, 10^-6 M, control 3.00 ± 1.73
[10] = Table 30, 10^-7 M, control 0.60 ± 0.02
[11] = Table 30, 10^-7 M, control 3.00 ± 1.73
[12] = Table 30, 10^-7 M, control 5.33 ± 1.15
[13] = Table 36, 10^-6 M, control 1.17 ± 0.03
[14] = Table 36, 10^-6 M, control 2.33 ± 1.15
[15] = Table 36, 10^-7 M, control 1.17 ± 0.03
[16] = Table 36, 10^-7 M, control 2.33 ± 1.15
[17] = Table 36, 10^-7 M, control 5.00 ± 0.00
[18] = Table 35, 10^-5 M, control 1.23 ± 0.02
[19] = Table 35, 10^-5 M, control 3.00 ± 1.00
[20] = Table 35, 10^-6 M, control 1.23 ± 0.02
[21] = Table 35, 10^-6 M, control 3.00 ± 1.00
[22] = Table 35, 10^-6 M, control 5.67 ± 0.58
[23] = Table 26, 10^-6 M, control 0.27 ± 0.04
[24] = Table 26, 10^-6 M, control 30.68 ± 3.33
[25] = Table 26, 10^-6 M, control 45.61 ± 6.19
[26] = Table 26, 10^-7 M, control 0.27 ± 0.04
[27] = Table 26, 10^-7 M, control 45.61 ± 6.19
[28] = Table 28, 10^-6 M, control 4.33 ± 0.58
[29] = Table 33, 10^-5 M, control 0.80 ± 0.02
[30] = Table 33, 10^-5 M, control 15.67 ± 1.53
[31] = Table 33, 10^-5 M, control 22.67 ± 3.06
[32] = Table 33, 10^-6 M, control 0.80 ± 0.02
[33] = Table 33, 10^-6 M, control 22.67 ± 3.06
[34] = Table 32, 10^-5 M, control 0.80 ± 0.01
[35] = Table 32, 10^-5 M, control 23.00 ± 1.00
[36] = Table 32, 10^-6 M, control 0.80 ± 0.01
[37] = Table 32, 10^-6 M, control 15.67 ± 0.58
[38] = Table 32, 10^-6 M, control 23.00 ± 1.00

COC(=O)COc1cccc(C=C2C(=O)C(SC)=CC2(O)CCCCOc2ccccc2)c1 (stereo not shown) [drawing 1073]
ALP (Table 29, 10^-7 M, control 0.77 ± 0.20): 0.52 ± 0.10 OD413 /dish
P (Table 29, 10^-7 M, control 18.64 ± 3.16): 21.72 ± 8.88 μg/dish
Ca (Table 29, 10^-7 M, control 31.26 ± 3.00): 36.18 ± 14.29 μg/dish
ALP (Table 29, 10^-8 M, control 0.77 ± 0.20): 0.64 OD413 /dish
Ca (Table 29, 10^-8 M, control 31.26 ± 3.00): 49.16 ± 26.04 μg/dish

CC(C)(C)C1=C(Sc2ccccc2)C(=O)C(=CC=CC(O)CCCO)C1O (stereo not shown)
ALP [1]: 0.16 ± 0.04 OD415 /dish
Ca [2]: 2.43 ± 0.19 μg/dish
P [3]: 4.68 ± 0.27 μg/dish
ALP [4]: 0.15 OD415 /dish
Ca [5]: 4.07 μg/dish

O=C1C(SC2CCCCC2)=CC(O)(CCCCOc2ccccc2)C1=CC=CC(O)CCCO (stereo not shown) [drawing 1070]
ALP (Table 27, 10^-6 M, control 0.58 ± 0.03): 0.64 ± 0.05 OD413 /dish
P (Table 27, 10^-6 M, control 11.50 ± 1.73): 24.83 ± 2.47 μg/dish
Ca (Table 27, 10^-6 M, control 11.83 ± 3.18): 33.50 ± 3.91 μg/dish
ALP [6]: 0.53 OD413 /dish
Ca [7]: 19.67 μg/dish

COC(=O)CCCCCC=C1C(=O)C(Sc2nccn2C)=CC1(O)CCCCOc1ccccc1 (stereo not shown)
ALP [8]: 0.60 OD415 /dish
Ca [9]: 43.67 μg/dish
ALP [10]: 0.63 ± 0.02 OD415 /dish
Ca [11]: 3.67 ± 1.15 μg/dish
P [12]: 6.33 ± 0.58 μg/dish

Cn1ccnc1SC1=CC(O)(CCCCOc2ccccc2)C(=CC=C2CCCCC2)C1=O (stereo not shown)
ALP [13]: 1.09 OD415 /dish
Ca [14]: 15.33 μg/dish
ALP [15]: 1.19 ± 0.06 OD415 /dish
Ca [16]: 3.33 ± 0.58 μg/dish
P [17]: 5.67 ± 0.58 μg/dish

Cn1ccnc1SC1=CC(O)(CCCCOc2ccccc2)C(C(O)C2=C(C(C)(C)O)CCCC2)C1=O (stereo not shown)
ALP (Table 36, 10^-5 M, control 1.17 ± 0.03): 0.87 OD415 /dish
Ca (Table 36, 10^-5 M, control 2.33 ± 1.15): 50.67 μg/dish
ALP [13]: 1.20 ± 0.05 OD415 /dish
Ca [14]: 2.00 ± 0.00 μg/dish
P (Table 36, 10^-6 M, control 5.00 ± 0.00): 5.00 ± 1.00 μg/dish

CC(C)OC(=O)OC(/C=C/C(O)CCCO)C1C(=O)C(Sc2nccn2C)=CC1(O)CCCCOc1ccccc1 (stereo not shown)
ALP [18]: 0.165 OD415 /dish
Ca [19]: 136.67 μg/dish
ALP [20]: 1.24 ± 0.03 OD415 /dish
Ca [21]: 54.67 ± 2.08 μg/dish
P [22]: 35.00 ± 2.00 μg/dish

Cn1ccnc1SC1=CC(O)(CCCCOc2ccccc2)C(=CC=CC2(O)CCCCC2)C1=O (stereo not shown)
ALP [8]: 0.11 OD415 /dish
Ca [9]: 85.67 μg/dish
ALP [10]: 0.58 ± 0.03 OD415 /dish
Ca [11]: 14.00 ± 1.00 μg/dish
P [12]: 12.67 ± 1.15 μg/dish

O=C1C(Sc2ccccn2)=CC(O)(CCCCOc2ccccc2)C1=CC=CC(O)CCCO (stereo not shown)
ALP [23]: 0.36 ± 0.12 OD413 /dish
P [24]: 42.28 ± 6.99 μg/dish
Ca [25]: 70.42 ± 7.82 μg/dish
ALP [26]: 0.29 ± 0.04 OD413 /dish
Ca [27]: 56.85 μg/dish

Cn1ccnc1SC1=CC(O)(CCCCOc2ccccc2)C(=Cc2ccc(CC(CO)CO)cc2)C1=O (stereo not shown)
ALP [8]: 0.08 OD415 /dish
Ca [9]: 116.00 μg/dish
ALP [10]: 0.66 ± 0.03 OD415 /dish
Ca [11]: 11.00 ± 1.73 μg/dish
P [12]: 11.67 ± 1.15 μg/dish

Cn1ccnc1SC1=CC(O)(CCCCOc2ccccc2)C(C(O)C=CC(O)CCCO)C1=O (stereo not shown) [drawing 1072]
ALP (Table 28, 10^-6 M, control 0.72 ± 0.01): 0.76 ± 0.08 OD413 /dish
Ca [28]: 26.17 ± 3.25 μg/dish
P [28]: 19.33 ± 2.02 μg/dish
ALP (Table 28, 10^-7 M, control 0.72 ± 0.01): 0.81 OD413 /dish
Ca (Table 28, 10^-7 M, control 4.33 ± 0.58): 1.17 μg/dish

O=C1C(=CCCC2CCCCC2)CC=C1Sc1ccccc1
ALP (Table 34, 10^-7 M, control 0.35 ± 0.02): 0.36 ± 0.04 OD415 /dish
P (Table 34, 10^-7 M, control 12.41 ± 1.50): 12.33 ± 2.80 μg/dish
Ca (Table 34, 10^-7 M, control 17.81 ± 0.50): 23.94 ± 5.80 μg/dish
ALP (Table 34, 10^-8 M, control 0.35 ± 0.02): 0.30 OD415 /dish
P (Table 34, 10^-8 M, control 12.41 ± 1.50): 8.98 ± 1.89 μg/dish
Ca (Table 34, 10^-8 M, control 17.81 ± 0.50): 18.13 ± 2.6 μg/dish

COC(=O)CCCC#CCC1C(=O)C(SC)=CC1(O)CCCCOc1ccccc1 (stereo not shown)
ALP [29]: 0.98 ± 0.08 OD415 /dish
P [30]: 35.33 ± 0.58 μg/dish
Ca [31]: 58.67 ± 1.53 μg/dish
ALP [32]: 0.90 OD415 /dish
Ca [33]: 24.33 ± 1.53 μg/dish

CCOc1ccc2nc(SC3=CC(O)(CCCCOc4ccccc4)C(=CC=CC(O)CCCO)C3=O)sc2c1 (stereo not shown) [drawing 1068]
ALP [23]: 0.10 ± 0.01 OD413 /dish
P [24]: 41.45 ± 7.21 μg/dish
Ca [25]: 81.88 ± 8.47 μg/dish
ALP [26]: 0.34 ± 0.06 OD413 /dish
Ca [27]: 61.19 μg/dish

CSC1=CC(O)(CCCCOc2ccccc2)C(C(/C=C/C(O)CCCO)OC(=O)OC(C)C)C1=O (stereo not shown)
ALP [18]: 0.18 OD415 /dish
Ca [19]: 109.67 μg/dish
ALP [20]: 1.22 ± 0.06 OD415 /dish
Ca [21]: 25.00 ± 1.73 μg/dish
P [22]: 19.67 ± 1.15 μg/dish

Cn1ccnc1SC1=CC(O)(CCCCOc2ccccc2)C(=C/C=C/CO)C1=O (stereo not shown)
ALP [13]: 1.18 OD415 /dish
Ca [14]: 37.33 μg/dish
ALP [15]: 1.20 ± 0.03 OD415 /dish
Ca [16]: 2.33 ± 0.58 μg/dish
P [17]: 4.33 ± 0.58 μg/dish

CSC1=CC(O)C(=CC=CC(O)CCCO)C1=O (stereo not shown) [drawing 1082]
ALP [34]: 0.53 OD415 /dish
Ca [35]: 57.33 ± 2.08 μg/dish
ALP [36]: 0.81 ± 0.06 OD415 /dish
P [37]: 16.33 ± 2.08 μg/dish
Ca [38]: 23.00 ± 3.46 μg/dish

CC(=O)OC(/C=C/C(O)CCCO)C1C(=O)C(Sc2nccn2C)=CC1(O)CCCCOc1ccccc1 (stereo not shown)
ALP [18]: 0.15 OD415 /dish
Ca [19]: 137.00 μg/dish
ALP [20]: 1.28 ± 0.03 OD415 /dish
Ca [21]: 51.67 ± 8.08 μg/dish
P [22]: 35.33 ± 5.03 μg/dish

CSC1=CC(O)(CCCCOc2ccccc2)C(C(/C=C/C(O)CCCO)OC(C)=O)C1=O (stereo not shown)
ALP [18]: 0.17 OD415 /dish
Ca [19]: 104.00 μg/dish
ALP [20]: 1.10 ± 0.06 OD415 /dish
Ca [21]: 24.08 ± 2.00 μg/dish
P [22]: 18.00 ± 1.00 μg/dish

CSC1=CC(O)(CCCCOc2ccccc2)C(CC=CC(O)CCCO)C1=O (stereo not shown)
ALP [34]: 0.56 OD415 /dish
Ca [35]: 30.67 ± 2.31 μg/dish
ALP [36]: 0.84 ± 0.03 OD415 /dish
P [37]: 9.33 ± 1.15 μg/dish
Ca [38]: 10.67 ± 1.53 μg/dish

Cn1ccnc1SC1=CC(O)(CCCCOc2ccccc2)C(=CC=CC(O)CCCO)C1=O (stereo not shown) [drawing 1069]
ALP [23]: 0.48 ± 0.04 OD413 /dish
P [24]: 46.43 ± 1.41 μg/dish
Ca [25]: 79.83 ± 0.58 μg/dish
ALP [26]: 0.33 OD413 /dish
Ca [27]: 61.95 μg/dish

O=C1C(SC2CCCCC2)=CC(O)(CCCCOc2ccccc2)C1C(O)C=CC(O)CCCO (stereo not shown)
ALP [6]: 0.55 ± 0.04 OD413 /dish
P (Table 27, 10^-7 M, control 11.50 ± 1.73): 11.67 ± 3.18 μg/dish
Ca [7]: 13.83 ± 1.15 μg/dish
ALP (Table 27, 10^-8 M, control 0.58 ± 0.03): 0.36 OD413 /dish
Ca (Table 27, 10^-8 M, control 11.83 ± 3.18): 20.17 μg/dish

CSC1=CC(CCCCOc2ccccc2)C(=C/C=C/C(O)CCCO)C1=O (stereo not shown)
ALP [29]: 0.79 ± 0.02 OD415 /dish
P [30]: 31.00 ± 1.00 μg/dish
Ca [31]: 50.67 ± 1.15 μg/dish
ALP [32]: 0.76 OD415 /dish
Ca [33]: 19.67 ± 2.52 μg/dish

CCCCC1=C(Sc2nccn2C)C(=O)C(=CC=CC(O)CCCO)C1(O)CCCCOc1ccccc1 (stereo not shown) [drawing 1079]
ALP [1]: 0.12 ± 0.01 OD415 /dish
Ca [2]: 4.85 ± 0.84 μg/dish
P [3]: 6.68 ± 0.34 μg/dish
ALP [4]: 0.17 OD415 /dish
Ca [5]: 2.46 μg/dish
